Paper PMC9300104 (2021)

Columns and labels:
[1] = system: Gdn13 wt (P2 wild-type, ACGG loop) (RNA, riboswitch) GGGGACGGCCCCA; assay: 1H-1D NMR titration; details: 5 mM Mg2+, 50 mM KCl; 25 mM potassium phosphate, pH 6.2, room temperature; KD not detected; up to 8 mM Gdm+ (Table 2)
[2] = system: Gdn49 P2mut (G44A, AA) (RNA, riboswitch) GGUUUGCAGGACGACCUGCAAACGCCUCUUUUCACCGGGGACGACCCCA; assay: 1H-1D NMR titration, U17 imino, Hill fit; details: 5 mM Mg2+, 50 mM KCl; 25 mM potassium phosphate, pH 6.2, room temperature, 50 μM RNA, Hill n 1.01; two bound signals summed
[3] = system: Gdn49 P1P2mut (A14G, G44A, GA) (RNA, riboswitch) GGUUUGCAGGACGGCCUGCAAACGCCUCUUUUCACCGGGGACGACCCCA; assay: 1H-1D NMR titration, U17 imino, Hill fit; details: 5 mM Mg2+, 50 mM KCl; 25 mM potassium phosphate, pH 6.2, room temperature, 50 μM RNA, Hill n 1.38
[4] = system: Gdn49 wt (aptamer wild-type, AG) (RNA, riboswitch) GGUUUGCAGGACGACCUGCAAACGCCUCUUUUCACCGGGGACGGCCCCA; assay: 1H-1D NMR titration, U17 imino, Hill fit; details: 5 mM Mg2+, 50 mM KCl; 25 mM potassium phosphate, pH 6.2, room temperature, 50 μM RNA, Hill n 1.10; no binding without Mg2+
[5] = system: Gdn49 P1mut (A14G, GG) (RNA, riboswitch) GGUUUGCAGGACGGCCUGCAAACGCCUCUUUUCACCGGGGACGGCCCCA; assay: 1H-1D NMR titration, U17 imino, Hill fit; details: 5 mM Mg2+, 50 mM KCl; 25 mM potassium phosphate, pH 6.2, room temperature, 50 μM RNA, Hill n 1.35
[6] = system: Gdn23 wt (P1 wild-type, ACGA loop) (RNA, riboswitch) GGUUUGCAGGACGACCUGCAAAC; assay: 1H-1D NMR titration, U17 imino, Hill fit; details: 5 mM Mg2+, 50 mM KCl; 25 mM potassium phosphate, pH 6.2, room temperature, 50 μM RNA, Hill n 1.16
[7] = system: Gdn13 G44A (RNA, riboswitch) GGGGACGACCCCA; assay: 1H-1D NMR, chemical shift perturbation; details: 5 mM Mg2+, 50 mM KCl; 25 mM potassium phosphate, pH 6.2, room temperature, 20 μM RNA, 1 mM Gdm+

binding [1]: no | KD [2]: 58.9 ± 8.1 µM | KD [3]: 165.0 ± 14.3 µM | KD [4]: 133.4 ± 3.9 µM | KD [5]: 264.3 ± 27.8 µM | KD [6]: 197.4 ± 8.8 µM | binding [7]: yes
Structure (SMILES): N=C(N)N
